According to ChEMBL document CHEMBL5625277, “Systematical mutational analysis of teriparatide on anti-osteoporosis activity by alanine scanning” (Bioorg Med Chem Lett, 2024):

Experiment: Cytotoxicity in pre-osteoblasts (unknown origin) assessed as cell death upto 5 uM by CCK8 assay
Assay type: toxicity, cell-based
Details: pre-osteoblast

Row | SMILES | Activity
1 | CC[C@H](C)[C@H](NC(=O)[C@H](CCC(=O)O)NC(=O)[C@H](CO)NC(=O)[C@@H](NC(=O)[C@H](C)NC(C)=O)C(C)C)C(=O)N[C@@H](CCC(N)=O)C(=O)N[C@@H](CC(C)C)C(=O)N[C@@H](CCSC)C(=O)N[C@@H](Cc1cnc[nH]1)C(=O)N[C@@H](CC(N)=O)C(=O)N[C@@H](CC(C)C)C(=O)NCC(=O)N[C@@H](CCCCN)C(=O)N[C@@H](Cc1cnc[nH]1)C(=O)N[C@@H](CC(C)C)C(=O)N[C@@H](CC(N)=O)C(=O)N[C@@H](CO)C(=O)N[C@@H](CCSC)C(=O)N[C@@H](CCC(=O)O)C(=O)N[C@@H](CCCNC(=N)N)C(=O)N[C@H](C(=O)N[C@@H](CCC(=O)O)C(=O)N[C@@H](Cc1c[nH]c2ccccc12)C(=O)N[C@@H](CC(C)C)C(=O)N[C@@H](CCCNC(=N)N)C(=O)N[C@@H](CCCCN)C(=O)N[C@@H](CCCCN)C(=O)N[C@@H](CC(C)C)C(=O)N[C@@H](CCC(N)=O)C(=O)N[C@@H](CC(=O)O)C(=O)N[C@H](C(=O)N[C@@H](Cc1cnc[nH]1)C(=O)N[C@@H](CC(N)=O)C(=O)N[C@@H](Cc1ccccc1)C(N)=O)C(C)C)C(C)C | Non-Toxic
2 | CC[C@H](C)[C@H](NC(=O)[C@H](CCC(=O)O)NC(=O)[C@H](CO)NC(=O)[C@@H](NC(=O)[C@H](CO)NC(C)=O)C(C)C)C(=O)N[C@@H](CCC(N)=O)C(=O)N[C@@H](CC(C)C)C(=O)N[C@@H](CCSC)C(=O)N[C@@H](Cc1cnc[nH]1)C(=O)N[C@@H](CC(N)=O)C(=O)N[C@@H](CC(C)C)C(=O)NCC(=O)N[C@@H](CCCCN)C(=O)N[C@@H](Cc1cnc[nH]1)C(=O)N[C@@H](CC(C)C)C(=O)N[C@@H](CC(N)=O)C(=O)N[C@@H](CO)C(=O)N[C@@H](CCSC)C(=O)N[C@@H](CCC(=O)O)C(=O)N[C@@H](CCCNC(=N)N)C(=O)N[C@H](C(=O)N[C@@H](CCC(=O)O)C(=O)N[C@@H](Cc1c[nH]c2ccccc12)C(=O)N[C@@H](CC(C)C)C(=O)N[C@@H](CCCNC(=N)N)C(=O)N[C@@H](CCCCN)C(=O)N[C@@H](CCCCN)C(=O)N[C@@H](C)C(=O)N[C@@H](CCC(N)=O)C(=O)N[C@@H](CC(=O)O)C(=O)N[C@H](C(=O)N[C@@H](Cc1cnc[nH]1)C(=O)N[C@@H](CC(N)=O)C(=O)N[C@@H](Cc1ccccc1)C(N)=O)C(C)C)C(C)C | Non-Toxic
3 | CC[C@H](C)[C@H](NC(=O)[C@H](CCC(=O)O)NC(=O)[C@H](CO)NC(=O)[C@@H](NC(=O)[C@H](CO)NC(C)=O)C(C)C)C(=O)N[C@@H](CCC(N)=O)C(=O)N[C@@H](CC(C)C)C(=O)N[C@@H](C)C(=O)N[C@@H](Cc1cnc[nH]1)C(=O)N[C@@H](CC(N)=O)C(=O)N[C@@H](CC(C)C)C(=O)NCC(=O)N[C@@H](CCCCN)C(=O)N[C@@H](Cc1cnc[nH]1)C(=O)N[C@@H](CC(C)C)C(=O)N[C@@H](CC(N)=O)C(=O)N[C@@H](CO)C(=O)N[C@@H](CCSC)C(=O)N[C@@H](CCC(=O)O)C(=O)N[C@@H](CCCNC(=N)N)C(=O)N[C@H](C(=O)N[C@@H](CCC(=O)O)C(=O)N[C@@H](Cc1c[nH]c2ccccc12)C(=O)N[C@@H](CC(C)C)C(=O)N[C@@H](CCCNC(=N)N)C(=O)N[C@@H](CCCCN)C(=O)N[C@@H](CCCCN)C(=O)N[C@@H](CC(C)C)C(=O)N[C@@H](CCC(N)=O)C(=O)N[C@@H](CC(=O)O)C(=O)N[C@H](C(=O)N[C@@H](Cc1cnc[nH]1)C(=O)N[C@@H](CC(N)=O)C(=O)N[C@@H](Cc1ccccc1)C(N)=O)C(C)C)C(C)C | Non-Toxic
4 | CC[C@H](C)[C@H](NC(=O)[C@H](CCC(=O)O)NC(=O)[C@H](CO)NC(=O)[C@@H](NC(=O)[C@H](CO)NC(C)=O)C(C)C)C(=O)N[C@@H](CCC(N)=O)C(=O)N[C@@H](C)C(=O)N[C@@H](CCSC)C(=O)N[C@@H](Cc1cnc[nH]1)C(=O)N[C@@H](CC(N)=O)C(=O)N[C@@H](CC(C)C)C(=O)NCC(=O)N[C@@H](CCCCN)C(=O)N[C@@H](Cc1cnc[nH]1)C(=O)N[C@@H](CC(C)C)C(=O)N[C@@H](CC(N)=O)C(=O)N[C@@H](CO)C(=O)N[C@@H](CCSC)C(=O)N[C@@H](CCC(=O)O)C(=O)N[C@@H](CCCNC(=N)N)C(=O)N[C@H](C(=O)N[C@@H](CCC(=O)O)C(=O)N[C@@H](Cc1c[nH]c2ccccc12)C(=O)N[C@@H](CC(C)C)C(=O)N[C@@H](CCCNC(=N)N)C(=O)N[C@@H](CCCCN)C(=O)N[C@@H](CCCCN)C(=O)N[C@@H](CC(C)C)C(=O)N[C@@H](CCC(N)=O)C(=O)N[C@@H](CC(=O)O)C(=O)N[C@H](C(=O)N[C@@H](Cc1cnc[nH]1)C(=O)N[C@@H](CC(N)=O)C(=O)N[C@@H](Cc1ccccc1)C(N)=O)C(C)C)C(C)C | Non-Toxic
5 | CC[C@H](C)[C@H](NC(=O)[C@H](CCC(=O)O)NC(=O)[C@H](CO)NC(=O)[C@@H](NC(=O)[C@H](CO)NC(C)=O)C(C)C)C(=O)N[C@@H](CCC(N)=O)C(=O)N[C@@H](CC(C)C)C(=O)N[C@@H](CCSC)C(=O)N[C@@H](Cc1cnc[nH]1)C(=O)N[C@@H](CC(N)=O)C(=O)N[C@@H](CC(C)C)C(=O)NCC(=O)N[C@@H](CCCCN)C(=O)N[C@@H](Cc1cnc[nH]1)C(=O)N[C@@H](CC(C)C)C(=O)N[C@@H](CC(N)=O)C(=O)N[C@@H](CO)C(=O)N[C@@H](CCSC)C(=O)N[C@@H](CCC(=O)O)C(=O)N[C@@H](CCCNC(=N)N)C(=O)N[C@H](C(=O)N[C@@H](CCC(=O)O)C(=O)N[C@@H](Cc1c[nH]c2ccccc12)C(=O)N[C@@H](CC(C)C)C(=O)N[C@@H](CCCNC(=N)N)C(=O)N[C@@H](CCCCN)C(=O)N[C@@H](CCCCN)C(=O)N[C@@H](CC(C)C)C(=O)N[C@@H](CCC(N)=O)C(=O)N[C@@H](CC(=O)O)C(=O)N[C@@H](C)C(=O)N[C@@H](Cc1cnc[nH]1)C(=O)N[C@@H](CC(N)=O)C(=O)N[C@@H](Cc1ccccc1)C(N)=O)C(C)C | Non-Toxic
6 | CC[C@H](C)[C@H](NC(=O)[C@H](CCC(=O)O)NC(=O)[C@H](CO)NC(=O)[C@@H](NC(=O)[C@H](CO)NC(C)=O)C(C)C)C(=O)N[C@@H](CCC(N)=O)C(=O)N[C@@H](CC(C)C)C(=O)N[C@@H](CCSC)C(=O)N[C@@H](Cc1cnc[nH]1)C(=O)N[C@@H](CC(N)=O)C(=O)N[C@@H](CC(C)C)C(=O)NCC(=O)N[C@@H](CCCCN)C(=O)N[C@@H](Cc1cnc[nH]1)C(=O)N[C@@H](CC(C)C)C(=O)N[C@@H](CC(N)=O)C(=O)N[C@@H](C)C(=O)N[C@@H](CCSC)C(=O)N[C@@H](CCC(=O)O)C(=O)N[C@@H](CCCNC(=N)N)C(=O)N[C@H](C(=O)N[C@@H](CCC(=O)O)C(=O)N[C@@H](Cc1c[nH]c2ccccc12)C(=O)N[C@@H](CC(C)C)C(=O)N[C@@H](CCCNC(=N)N)C(=O)N[C@@H](CCCCN)C(=O)N[C@@H](CCCCN)C(=O)N[C@@H](CC(C)C)C(=O)N[C@@H](CCC(N)=O)C(=O)N[C@@H](CC(=O)O)C(=O)N[C@H](C(=O)N[C@@H](Cc1cnc[nH]1)C(=O)N[C@@H](CC(N)=O)C(=O)N[C@@H](Cc1ccccc1)C(N)=O)C(C)C)C(C)C | Non-Toxic
7 | CC[C@H](C)[C@H](NC(=O)[C@H](CCC(=O)O)NC(=O)[C@H](CO)NC(=O)[C@@H](NC(=O)[C@H](CO)NC(C)=O)C(C)C)C(=O)N[C@@H](CCC(N)=O)C(=O)N[C@@H](CC(C)C)C(=O)N[C@@H](CCSC)C(=O)N[C@@H](Cc1cnc[nH]1)C(=O)N[C@@H](CC(N)=O)C(=O)N[C@@H](CC(C)C)C(=O)NCC(=O)N[C@@H](CCCCN)C(=O)N[C@@H](Cc1cnc[nH]1)C(=O)N[C@@H](CC(C)C)C(=O)N[C@@H](CC(N)=O)C(=O)N[C@@H](CO)C(=O)N[C@@H](CCSC)C(=O)N[C@@H](CCC(=O)O)C(=O)N[C@@H](CCCNC(=N)N)C(=O)N[C@H](C(=O)N[C@@H](CCC(=O)O)C(=O)N[C@@H](Cc1c[nH]c2ccccc12)C(=O)N[C@@H](C)C(=O)N[C@@H](CCCNC(=N)N)C(=O)N[C@@H](CCCCN)C(=O)N[C@@H](CCCCN)C(=O)N[C@@H](CC(C)C)C(=O)N[C@@H](CCC(N)=O)C(=O)N[C@@H](CC(=O)O)C(=O)N[C@H](C(=O)N[C@@H](Cc1cnc[nH]1)C(=O)N[C@@H](CC(N)=O)C(=O)N[C@@H](Cc1ccccc1)C(N)=O)C(C)C)C(C)C | Non-Toxic
8 | CC[C@H](C)[C@H](NC(=O)[C@H](CCC(=O)O)NC(=O)[C@H](C)NC(=O)[C@@H](NC(=O)[C@H](CO)NC(C)=O)C(C)C)C(=O)N[C@@H](CCC(N)=O)C(=O)N[C@@H](CC(C)C)C(=O)N[C@@H](CCSC)C(=O)N[C@@H](Cc1cnc[nH]1)C(=O)N[C@@H](CC(N)=O)C(=O)N[C@@H](CC(C)C)C(=O)NCC(=O)N[C@@H](CCCCN)C(=O)N[C@@H](Cc1cnc[nH]1)C(=O)N[C@@H](CC(C)C)C(=O)N[C@@H](CC(N)=O)C(=O)N[C@@H](CO)C(=O)N[C@@H](CCSC)C(=O)N[C@@H](CCC(=O)O)C(=O)N[C@@H](CCCNC(=N)N)C(=O)N[C@H](C(=O)N[C@@H](CCC(=O)O)C(=O)N[C@@H](Cc1c[nH]c2ccccc12)C(=O)N[C@@H](CC(C)C)C(=O)N[C@@H](CCCNC(=N)N)C(=O)N[C@@H](CCCCN)C(=O)N[C@@H](CCCCN)C(=O)N[C@@H](CC(C)C)C(=O)N[C@@H](CCC(N)=O)C(=O)N[C@@H](CC(=O)O)C(=O)N[C@H](C(=O)N[C@@H](Cc1cnc[nH]1)C(=O)N[C@@H](CC(N)=O)C(=O)N[C@@H](Cc1ccccc1)C(N)=O)C(C)C)C(C)C | Non-Toxic
9 | CC[C@H](C)[C@H](NC(=O)[C@H](CCC(=O)O)NC(=O)[C@H](CO)NC(=O)[C@@H](NC(=O)[C@H](CO)NC(C)=O)C(C)C)C(=O)N[C@@H](CCC(N)=O)C(=O)N[C@@H](CC(C)C)C(=O)N[C@@H](CCSC)C(=O)N[C@@H](Cc1cnc[nH]1)C(=O)N[C@@H](CC(N)=O)C(=O)N[C@@H](CC(C)C)C(=O)NCC(=O)N[C@@H](CCCCN)C(=O)N[C@@H](Cc1cnc[nH]1)C(=O)N[C@@H](CC(C)C)C(=O)N[C@@H](CC(N)=O)C(=O)N[C@@H](CO)C(=O)N[C@@H](CCSC)C(=O)N[C@@H](CCC(=O)O)C(=O)N[C@@H](CCCNC(=N)N)C(=O)N[C@@H](C)C(=O)N[C@@H](CCC(=O)O)C(=O)N[C@@H](Cc1c[nH]c2ccccc12)C(=O)N[C@@H](CC(C)C)C(=O)N[C@@H](CCCNC(=N)N)C(=O)N[C@@H](CCCCN)C(=O)N[C@@H](CCCCN)C(=O)N[C@@H](CC(C)C)C(=O)N[C@@H](CCC(N)=O)C(=O)N[C@@H](CC(=O)O)C(=O)N[C@H](C(=O)N[C@@H](Cc1cnc[nH]1)C(=O)N[C@@H](CC(N)=O)C(=O)N[C@@H](Cc1ccccc1)C(N)=O)C(C)C | Non-Toxic
